EPA's ToxRefDB 2

How the values were obtained:
rat [1] = details: Subchronic dermal toxicity, other, Topical, dose end: 90 day, group: systemic, systemic / pathology gross / skin / lesion(s) (nos)
rat [2] = details: Prenatal developmental toxicity study, sprague dawley, Oral, Gavage/Intubation, dose end: 19 GD
rat [3] = details: Subchronic oral toxicity in rodents, sprague dawley, Feed, dose end: 13 week, group: systemic
rat [4] = details: Subchronic inhalation toxicity, sprague dawley, Nose-Only, dose end: 90 day, group: systemic, systemic / pathology microscopic / nose / degeneration + systemic / pathology microscopic / nose / hyperkeratosis + systemic / pathology …
rat [5] = details: Sub-acute dermal toxicity, Sprague-Dawley, Topical, dose end: 29 day, group: systemic, systemic / in life observation / clinical signs / anogenital staining
rat [6] = details: Neurotoxicity screening battery, other, Oral, Feed, dose end: 90 day, group: cannot be grouped
mouse [7] = details: Subchronic oral toxicity in rodents, b6c3f1, Feed, dose end: 90 day, group: systemic, systemic / organ weight / liver / absolute + systemic / organ weight / liver / relative to body weight + systemic / organ weight / liver / …
rat [8] = details: Sub-acute repeat dose toxicity; other; Oral; Feed; dose end: 28 day; group: systemic; systemic / clinical chemistry / glucose / glucose + systemic / in life observation / body weight / body weight + systemic / in life …
mouse [9] = details: Combined chronic toxicity/carcinogenicity, b6c3f1, Oral, Feed, dose end: 18 month, group: systemic
dog = details: Subchronic oral toxicity in nonrodent, beagle, Feed, dose end: 13 week, group: systemic
mouse [10] = details: Sub-acute repeat dose toxicity, b6c3f1, Oral, Feed, dose end: 28 day, group: systemic
rat [11] = details: Prenatal developmental toxicity study, sprague dawley, Dermal, Topical, dose end: 15 GD, group: maternal
rat [12] = details: Combined chronic toxicity/carcinogenicity; sprague dawley; Oral; Feed; dose end: 2 year; group: systemic; systemic / in life observation / body weight / body weight + systemic / in life observation / body weight / body weight gain + systemic / in…
rat [13] = details: Prenatal developmental toxicity study, sprague dawley, Dermal, Topical, dose end: 15 GD
[14] = group: developmental, systemic / in life observation / body weight / fetal weight
[15] = group: developmental, systemic / in life observation / body weight / fetal weight + developmental / developmental malformation / bone / bipartite ossification + …
[16] = group: maternal, systemic / in life observation / clinical signs / salivation
[17] = group: maternal, systemic / in life observation / clinical signs / salivation + reproductive / reproductive performance / resorptions / resorptions + …
[18] = systemic / pathology microscopic / spinal cord / vacuolization + systemic / pathology microscopic / brain / vacuolization
[19] = systemic / pathology microscopic / spinal cord / vacuolization + systemic / pathology microscopic / brain / vacuolization + systemic / organ…
[20] = systemic / in life observation / body weight / body weight + systemic / in life observation / body weight / body weight gain + systemic / in…
[21] = systemic / pathology microscopic / liver / hepatocellular adenoma + systemic / pathology microscopic / liver / hepatocellular carcinoma + …
[22] = systemic / hematology / platelet / platelet
[23] = systemic / hematology / platelet / platelet + systemic / in life observation / body weight / body weight gain + systemic / clinical …
[24] = systemic / pathology microscopic / kidney / hypertrophy
[25] = systemic / pathology microscopic / kidney / hypertrophy + systemic / in life observation / mortality / mortality
[26] = reproductive / reproductive performance / aborted / aborted + reproductive / reproductive performance / resorptions / resorptions + systemic…
[27] = systemic / in life observation / clinical signs / desquamation + systemic / in life observation / clinical signs / urine, discoloration
[28] = group: developmental, developmental / developmental malformation / bone / absent + developmental / developmental malformation / bone / fused + developmental / …
[29] = group: maternal, reproductive / reproductive performance / resorptions / resorptions + systemic / in life observation / body weight / body weight gain + …
[30] = group: maternal, systemic / in life observation / clinical signs / desquamation

## N#Cc1c(-c2ccc(Cl)cc2)[nH]c(C(F)(F)F)c1Br [Tralopyril]
Rat [1]
  LEL: 300 mg/kg/day
  LOAEL: 300 mg/kg/day
  NEL: 100 mg/kg/day
  NOAEL: 100 mg/kg/day
Rat [2]; [14]
  LEL: 10 mg/kg/day
  LOAEL: 10 mg/kg/day
Rat [2]; [15]
  NEL: 5 mg/kg/day
  NOAEL: 5 mg/kg/day
Rat [2]; [16]
  LEL: 10 mg/kg/day
  LOAEL: 10 mg/kg/day
Rat [2]; [17]
  NEL: 5 mg/kg/day
  NOAEL: 5 mg/kg/day
Rat [3]; [18]
  LOAEL: 6.3 mg/kg/day
  NOAEL: < 6.3 mg/kg/day
Rat [3]; [19]
  LEL: 6.3 mg/kg/day
  NEL: < 6.3 mg/kg/day
Rat [4]
  LEL: 1.4 ppm
  LOAEL: 1.4 ppm
  NEL: < 1.4 ppm
  NOAEL: < 1.4 ppm
Rat [5]
  LEL: 1000 mg/kg/day
  LOAEL: > 1000 mg/kg/day
  NEL: 300 mg/kg/day
  NOAEL: ≥ 1000 mg/kg/day

## CN1CCCC1=O [N-Methyl-2-pyrrolidone]
Rat [6]; systemic / in life observation / body weight / body weight + systemic / in life observation / body weight / body weight gain
  LOAEL: 433 mg/kg/day
Rat [6]; [20]
  LEL: 433 mg/kg/day
  NEL: 169 mg/kg/day
  NOAEL: 169 mg/kg/day
Mouse [7]
  LEL: 619 mg/kg/day
  LOAEL: 619 mg/kg/day
  NEL: 277 mg/kg/day
  NOAEL: 277 mg/kg/day
Rat [8]
  LEL: 1230 mg/kg/day
  LOAEL: 1230 mg/kg/day
  NEL: 429 mg/kg/day
  NOAEL: 429 mg/kg/day
Mouse [9]; systemic / organ weight / liver / absolute + systemic / organ weight / liver / relative to body weight + systemic / pathology microscopic / …
  LEL: 173 mg/kg/day
Mouse [9]; [21]
  LOAEL: > 1090 mg/kg/day
  NEL: 89 mg/kg/day
  NOAEL: ≥ 1090 mg/kg/day
dog; [22]
  LEL: 25 mg/kg/day
  NEL: < 25 mg/kg/day
dog; [23]
  LOAEL: > 250 mg/kg/day
  NOAEL: ≥ 250 mg/kg/day
Mouse [10]; [24]
  LEL: 2130 mg/kg/day
  LOAEL: 2130 mg/kg/day
Mouse [10]; [25]
  NEL: 720 mg/kg/day
  NOAEL: 720 mg/kg/day
Rat [11]; [26]
  LOAEL: > 2500 mg/kg/day
  NOAEL: ≥ 2500 mg/kg/day
Rat [11]; [27]
  LEL: 500 mg/kg/day
  NEL: < 500 mg/kg/day
Rat [12]
  LEL: 678 mg/kg/day
  LOAEL: > 678 mg/kg/day
  NEL: 207 mg/kg/day
  NOAEL: ≥ 678 mg/kg/day
Rat [13]; [28]
  LEL: 750 mg/kg/day
  LOAEL: > 750 mg/kg/day
  NEL: 237 mg/kg/day
  NOAEL: ≥ 750 mg/kg/day
Rat [13]; [29]
  LOAEL: > 750 mg/kg/day
  NOAEL: ≥ 750 mg/kg/day
Rat [13]; [30]
  LEL: 75 mg/kg/day
  NEL: < 75 mg/kg/day
